Test results as given in PubChem BioAssay AID248 (DTP/NCI, 2004).
Toxic doses and inconclusive results are not listed.

Tested on: L1210 leukemia ip in BDF1 mice, survival T/C
Assay: NCI In Vivo Anticancer Drug Screen. Data for tumor model L1210 Leukemia (intraperitoneal) in B6D2F1 (BDF1) mice
Conditions: endpoint: mean survival time, higher = longer survival
Procedure, shortened: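 Tumor cells were implanted, animals were treated, and survival was followed. The result divides the treated measurement by the vehicle-control measurement.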

[1] = dose: 100.0 mg/kg/injection, schedule: Q04DX002 (ip), vehicle: Klucel (hydroxypropylcellulose) (HPC)
[2] = dose: 200.0 mg/kg/injection, schedule: Q04DX002 (ip), vehicle: Klucel (hydroxypropylcellulose) (HPC)
[3] = dose: 5.0 mg/kg/injection, schedule: Q01DX001 (ip), vehicle: saline
[4] = dose: 10.0 mg/kg/injection, schedule: Q01DX001 (ip), vehicle: saline
[5] = dose: 20.0 mg/kg/injection, schedule: Q01DX001 (ip), vehicle: saline
[6] = dose: 100.0 mg/kg/injection, schedule: Q01DX001 (ip), vehicle: Klucel (hydroxypropylcellulose) (HPC)
[7] = dose: 100.0 mg/kg/injection, schedule: Q04DX003 (ip), vehicle: Klucel (hydroxypropylcellulose) (HPC)
[8] = dose: 200.0 mg/kg/injection, schedule: Q01DX001 (ip), vehicle: Klucel (hydroxypropylcellulose) (HPC)
[9] = dose: 200.0 mg/kg/injection, schedule: Q04DX003 (ip), vehicle: Klucel (hydroxypropylcellulose) (HPC)
[10] = dose: 400.0 mg/kg/injection, schedule: Q01DX001 (ip), vehicle: Klucel (hydroxypropylcellulose) (HPC)
[11] = dose: 400.0 mg/kg/injection, schedule: Q04DX003 (ip), vehicle: Klucel (hydroxypropylcellulose) (HPC)
[12] = dose: 100.0 mg/kg/injection, schedule: Q01DX009 (ip), vehicle: Klucel (hydroxypropylcellulose) (HPC)
[13] = dose: 200.0 mg/kg/injection, schedule: Q01DX009 (ip), vehicle: Klucel (hydroxypropylcellulose) (HPC)
[14] = dose: 100.0 mg/kg/injection, schedule: Q04DX003 (ip), vehicle: saline with Tween-80
[15] = dose: 200.0 mg/kg/injection, schedule: Q04DX003 (ip), vehicle: saline with Tween-80
[16] = dose: 400.0 mg/kg/injection, schedule: Q04DX003 (ip), vehicle: saline with Tween-80

SMILES: N#CCCNC(=O)N(CCC#N)N=O
- T/C (dose: 3.12 mg/kg/injection, schedule: Q01DX Z (ip), vehicle: carboxymethylcellulose (CMC)): 100 % of control
- T/C (dose: 6.25 mg/kg/injection, schedule: Q01DX Z (ip), vehicle: carboxymethylcellulose (CMC)): 102 % of control
- T/C (dose: 12.5 mg/kg/injection, schedule: Q01DX Z (ip), vehicle: carboxymethylcellulose (CMC)): 103 % of control
- T/C (dose: 25.0 mg/kg/injection, schedule: Q01DX Z (ip), vehicle: carboxymethylcellulose (CMC)): 118 % of control
- T/C (dose: 75.0 mg/kg/injection, schedule: Q01DX Z (ip), vehicle: carboxymethylcellulose (CMC)): 153 % of control
- T/C (dose: 100.0 mg/kg/injection, schedule: Q01DX Z (ip), vehicle: carboxymethylcellulose (CMC)): 118 % of control
- T/C (dose: 150.0 mg/kg/injection, schedule: Q01DX Z (ip), vehicle: carboxymethylcellulose (CMC)): 155 % of control
- T/C (dose: 200.0 mg/kg/injection, schedule: Q01DX Z (ip), vehicle: carboxymethylcellulose (CMC)): 116 % of control

SMILES: O=C(O)c1cc(Br)cc(I)c1Cl
- T/C [1]: 102 % of control
- T/C [2]: 94 % of control

SMILES: O=Cc1ccccc1OCCCC[P+](c1ccccc1)(c1ccccc1)c1ccccc1
- T/C [3]: 111 % of control
- T/C [4]: 107 % of control
- T/C [5]: 102 % of control

SMILES: O=c1ccs[nH]1
- T/C (dose: 12.5 mg/kg/injection, schedule: Q04DX003 (ip), vehicle: saline with Tween-80): 106 % of control
- T/C (dose: 25.0 mg/kg/injection, schedule: Q04DX003 (ip), vehicle: saline with Tween-80): 98 % of control

SMILES: O=[N+]([O-])c1cccc(/C=C/S(=O)(=O)c2ccccc2)c1
- T/C [6]: 107 % of control
- T/C [7]: 103 % of control
- T/C [8]: 95 % of control
- T/C [9]: 103 % of control
- T/C [10]: 104 % of control
- T/C [11]: 100 % of control

SMILES: O=C(Nc1cc([N+](=O)[O-])ccc1F)Oc1ccc(OCc2ccccc2)cc1
- T/C [1]: 103 % of control
- T/C [2]: 89 % of control
- T/C (dose: 400.0 mg/kg/injection, schedule: Q04DX002 (ip), vehicle: Klucel (hydroxypropylcellulose) (HPC)): 106 % of control

SMILES: CC(C)=NOC(CC(=O)O)C(=O)O (stereo unspecified)
- T/C (dose: 100.0 mg/kg/injection, schedule: Q04DX002 (ip), vehicle: saline): 96 % of control
- T/C (dose: 200.0 mg/kg/injection, schedule: Q04DX002 (ip), vehicle: saline): 96 % of control
- T/C (dose: 400.0 mg/kg/injection, schedule: Q04DX002 (ip), vehicle: saline): 96 % of control

SMILES: COc1ccc(/C=[N+](\[O-])c2ccccc2)cc1
- T/C (dose: 50.0 mg/kg/injection, schedule: Q01DX001 (ip), vehicle: saline): 110 % of control
- T/C (dose: 100.0 mg/kg/injection, schedule: Q01DX001 (ip), vehicle: saline): 112 % of control
- T/C (dose: 200.0 mg/kg/injection, schedule: Q01DX001 (ip), vehicle: saline): 112 % of control
- T/C (dose: 400.0 mg/kg/injection, schedule: Q01DX001 (ip), vehicle: saline): 118 % of control

SMILES: COc1cc(N[Si](C)(C)C)nc(OC)n1
- T/C (dose: 50.0 mg/kg/injection, schedule: Q01DX009 (ip), vehicle: saline): 100 % of control
- T/C (dose: 100.0 mg/kg/injection, schedule: Q01DX009 (ip), vehicle: saline): 96 % of control
- T/C (dose: 200.0 mg/kg/injection, schedule: Q01DX009 (ip), vehicle: saline): 92 % of control

SMILES: CC(C(=O)c1ccc(Cl)cc1)C(O)(C(F)(F)F)C(F)(F)F (stereo unspecified)
- T/C (dose: 50.0 mg/kg/injection, schedule: Q01DX009 (ip), vehicle: Klucel (hydroxypropylcellulose) (HPC)): 104 % of control
- T/C [12]: 104 % of control
- T/C [7]: 103 % of control
- T/C [13]: 108 % of control
- T/C [9]: 101 % of control
- T/C [11]: 103 % of control

SMILES: O=C(CCc1ccc(C(=O)Nc2ccc(C3=NCCCN3)cc2)cc1)Nc1ccc(C2=NCCCN2)cc1
- T/C (dose: 0.37 mg/kg/injection, schedule: Q01DX Z (ip), vehicle: water): 98 % of control
- T/C (dose: 0.75 mg/kg/injection, schedule: Q01DX Z (ip), vehicle: water): 108 % of control
- T/C (dose: 1.0 mg/kg/injection, schedule: Q01DX Z (ip), vehicle: water): 121 % of control
- T/C (dose: 4.0 mg/kg/injection, schedule: Q01DX Z (ip), vehicle: water): 232 % of control
- T/C (dose: 8.0 mg/kg/injection, schedule: Q01DX Z (ip), vehicle: water): 270 % of control
- T/C (dose: 25.0 mg/kg/injection, schedule: Q01DX Z (oral), vehicle: water): 102 % of control
- T/C (dose: 50.0 mg/kg/injection, schedule: Q01DX Z (oral), vehicle: water): 93 % of control
- T/C (dose: 100.0 mg/kg/injection, schedule: Q01DX Z (oral), vehicle: water): 93 % of control
- T/C (dose: 200.0 mg/kg/injection, schedule: Q01DX Z (oral), vehicle: water): 102 % of control

SMILES: Cc1c(-c2nc(SCC(=O)NN)n[nH]2)no[n+]1[O-]
- T/C (dose: 25.0 mg/kg/injection, schedule: Q04DX002 (ip), vehicle: Klucel (hydroxypropylcellulose) (HPC)): 102 % of control
- T/C (dose: 50.0 mg/kg/injection, schedule: Q04DX002 (ip), vehicle: Klucel (hydroxypropylcellulose) (HPC)): 91 % of control
- T/C [1]: 98 % of control

SMILES: CCOC(=O)C(=Cc1c[nH]c2ccc(Br)cc12)C(=O)OCC
- T/C (dose: 100.0 mg/kg/injection, schedule: Q01DX009 (ip), vehicle: saline with Tween-80): 98 % of control
- T/C [14]: 89 % of control
- T/C (dose: 200.0 mg/kg/injection, schedule: Q01DX009 (ip), vehicle: saline with Tween-80): 104 % of control
- T/C [15]: 96 % of control
- T/C (dose: 400.0 mg/kg/injection, schedule: Q01DX009 (ip), vehicle: saline with Tween-80): 101 % of control
- T/C [16]: 91 % of control

SMILES: CCCCCCCC/C=C\CCCCCCCC(=O)OCCCCCCCCCCCCCCC
- T/C (dose: 100.0 mg/kg/injection, schedule: Q01DX009 (ip), vehicle: other): 96 % of control
- T/C (dose: 200.0 mg/kg/injection, schedule: Q01DX009 (ip), vehicle: other): 96 % of control
- T/C (dose: 400.0 mg/kg/injection, schedule: Q01DX009 (ip), vehicle: other): 96 % of control

SMILES: CCOc1ccc(/C=C(\C#N)c2cccc(Cl)c2)cc1
- T/C [12]: 100 % of control
- T/C [13]: 93 % of control
- T/C (dose: 400.0 mg/kg/injection, schedule: Q01DX009 (ip), vehicle: Klucel (hydroxypropylcellulose) (HPC)): 91 % of control

SMILES: c1ccc([S+]([CH2][Hg][CH2][S+](c2ccccc2)c2ccccc2)c2ccccc2)cc1
- T/C [3]: 92 % of control
- T/C [4]: 109 % of control
- T/C [5]: 119 % of control

SMILES: O=C1C=CC(=O)N1Cc1ccc[n+](CCC[n+]2cccc(CN3C(=O)C=CC3=O)c2)c1
- T/C (dose: 100.0 mg/kg/injection, schedule: Q01DX001 (ip), vehicle: carboxymethylcellulose (CMC)): 98 % of control
- T/C (dose: 200.0 mg/kg/injection, schedule: Q01DX001 (ip), vehicle: carboxymethylcellulose (CMC)): 91 % of control
- T/C (dose: 400.0 mg/kg/injection, schedule: Q01DX001 (ip), vehicle: carboxymethylcellulose (CMC)): 96 % of control

SMILES: NC(=S)N/N=C/c1nccn1Cc1ccccc1
- T/C [6]: 104 % of control
- T/C (dose: 100.0 mg/kg/injection, schedule: Q01DX001 (ip), vehicle: other): 101 % of control
- T/C [8]: 101 % of control
- T/C (dose: 200.0 mg/kg/injection, schedule: Q01DX001 (ip), vehicle: other): 96 % of control
- T/C [10]: 104 % of control

SMILES: O=C1/C(=C2\CCc3ccccc32)Cc2ccccc21
- T/C (dose: 12.5 mg/kg/injection, schedule: Q04DX002 (ip), vehicle: saline): 99 % of control
- T/C (dose: 25.0 mg/kg/injection, schedule: Q04DX002 (ip), vehicle: saline): 96 % of control
- T/C (dose: 50.0 mg/kg/injection, schedule: Q04DX002 (ip), vehicle: saline): 96 % of control

SMILES: O=C1OC(=O)c2c1ccc1ccc(Cl)cc21
- T/C [14]: 94 % of control
- T/C [15]: 94 % of control
- T/C [16]: 102 % of control
